Measurements reported in paper PMC2217464 (The Journal of General Physiology, 2004).
Changes are numbered by the printed parent chain.

Experiments:
[1] = molecular target: T1, mouse bestrophin-2 (mBest2) (Mus musculus, UniProt Q8BGM5, S79C); assay: whole-cell patch clamp, block of Cl- current; format: cell-based
T1 sequence (Q8BGM5 1-508 S79C): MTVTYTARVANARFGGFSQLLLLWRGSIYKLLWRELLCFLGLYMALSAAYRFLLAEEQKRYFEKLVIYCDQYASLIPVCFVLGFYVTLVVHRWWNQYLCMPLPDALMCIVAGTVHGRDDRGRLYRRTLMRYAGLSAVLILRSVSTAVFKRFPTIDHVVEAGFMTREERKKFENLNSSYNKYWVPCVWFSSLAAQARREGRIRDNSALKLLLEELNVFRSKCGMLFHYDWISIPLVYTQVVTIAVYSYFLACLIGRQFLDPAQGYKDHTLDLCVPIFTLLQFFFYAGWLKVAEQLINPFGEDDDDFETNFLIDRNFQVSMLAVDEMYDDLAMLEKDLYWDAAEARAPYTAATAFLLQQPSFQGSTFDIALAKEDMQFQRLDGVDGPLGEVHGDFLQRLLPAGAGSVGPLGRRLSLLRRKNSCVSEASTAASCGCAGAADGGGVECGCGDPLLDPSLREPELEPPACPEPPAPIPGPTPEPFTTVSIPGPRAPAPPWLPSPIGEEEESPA

[2] = molecular target: T2, mouse bestrophin-2 (mBest2) (Mus musculus, UniProt Q8BGM5); assay: whole-cell patch clamp, block of Cl- current; format: cell-based
T2 sequence (Q8BGM5 1-508): T1 sequence (Q8BGM5 1-508 S79C) with C79S

Row | IC50 [1] [µM] | IC50 [2] [µM] | Structure (SMILES)
1 | 14.6 ± 3.6 | 3.1 ± 0.3 | O=S(=O)(O)c1cc(N=C=S)ccc1/C=C/c1ccc(N=C=S)cc1S(=O)(=O)O [DIDS]
2 |  | 12000 | N#CS [SCN^−]
